This is an account of results in patent EP0471756B1, “SACCHARIN DERIVATIVES USEFUL AS PROTEOLYTIC ENZYME INHIBITORS AND PREPARATION THEREOF” (priority 1989, dated 1990).

The test has as its target T1, human leukocyte elastase (HLE) (Homo sapiens, UniProt P08246).
T1 sequence (P08246 30-267): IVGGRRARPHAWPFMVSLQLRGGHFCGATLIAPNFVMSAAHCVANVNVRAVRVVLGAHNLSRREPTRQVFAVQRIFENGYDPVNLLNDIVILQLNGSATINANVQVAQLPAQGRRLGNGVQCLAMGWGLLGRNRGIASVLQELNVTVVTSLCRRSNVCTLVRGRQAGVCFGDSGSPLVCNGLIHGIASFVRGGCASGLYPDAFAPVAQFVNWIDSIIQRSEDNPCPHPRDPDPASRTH
The test can be described thus: Inactivation of human leukocyte elastase: kon measured, Ki* = koff/kon calculated. The format is biochemical. The following applies: for Ki: Ki* = koff/kon, not a truly reversible inhibition constant; for kinact/KI: read-out: 10^-3 x kon.

Setting [1] is: Elastase, rate of inactivation kon = kobs/[I], value is kon x 10^-3.

Read-outs that look alike come from different tables or passages of the source.

Experimental: Thus, instead of measuring a Ki, a Ki* is calculated which is defined as the ratio of the koff/kon, the rate of reactivation of the enzyme to the rate of inactivation of the enzyme. The values of koff and kon are measured and Ki* is then calculated.
The rate of inactivation, kon, of enzymatic activity was determined for the compounds tested by measuring the enzyme activity of an aliquot of the respective enzyme as a function of time after addition of the test compound. […] The rate of inactivation is then equal to kon =(kobs)/([I]) [formula] where [I] is the concentration of the inhibiting compound.
The reactivation constant, koff, is similarly determined and the inhibition constant, Ki*, is then calculated as Ki * = koff /kon [formula]

As to `CC(=O)Nc1ccc2c(c1)C(=O)N(CSc1nnnn1-c1ccccc1)S2(=O)=O` [Example 37, 5-acetylamino-2-(1-phenyl-1H-tetrazol-5-ylthiomethyl)saccharin], the Ki (Elastase) was above 90 µM. Take `CC(C)Oc1cccc2c1C(=O)N(CSc1nnnn1-c1ccccc1)S2(=O)=O` [Example 30AU]: the Ki (Elastase) is 0.0175 µM. For the same compound, the kinact/KI under setting [1] was 8900 M⁻¹ s⁻¹. For `CCc1cccc2c1C(=O)N(CCl)S2(=O)=O` [Example 28], the “10^-3 x kon” value under setting [1] is listed as 50.7 M^-1 sec^-1. Regarding `CN(C)CCSc1nnc(SCN2C(=O)c3ccccc3S2(=O)=O)s1` [Example 33B, 2-(5-[2-(N,N-dimethylamino)ethylthio]-1,3,4-thiadiazol-2-ylthiomethyl)saccharin], the kinact/KI under setting [1] was 4000 M⁻¹ s⁻¹. Take `CCOC(=O)Cn1nnnc1SCN1C(=O)c2ccccc2S1(=O)=O` [Example 30AP]: the kinact/KI under setting [1] is 1300 M⁻¹ s⁻¹. As to `O=C(O)c1cccc(-n2nnn(CN3C(=O)c4ccccc4S3(=O)=O)c2=S)c1` [Example 30-O], the kinact/KI under setting [1] was 30 M⁻¹ s⁻¹.

For the compound `O=C1c2ccccc2S(=O)(=O)N1CSc1nncn1-c1ccccc1` [Example 30I], the kinact/KI under setting [1] is 450 M⁻¹ s⁻¹.

For `CCOc1cccc2c1C(=O)N(CSc1nnnn1CC(=O)N(C)C)S2(=O)=O` [Example 30AX], the kinact/KI under setting [1] is 7500 M⁻¹ s⁻¹. On to `O=C1c2ccccc2S(=O)(=O)N1Cn1nnn(-c2cccnc2)c1=S` [Example 30R], for which the kinact/KI under setting [1] is 2300 M⁻¹ s⁻¹. Consider `O=C1c2c(Br)cccc2S(=O)(=O)N1CCl` [Example 21, 2-chloromethyl-4-bromosaccharin], for which, under setting [1], the kinact/KI was 950000 M⁻¹ s⁻¹. Turning to `CCC(CC)c1cccc2c1C(=O)N(CCl)S2(=O)=O` [Example 22C, 2-chloromethyl-4-(3-pentyl)saccharin], the kinact/KI under setting [1] is 105000 M⁻¹ s⁻¹. Take `O=C1c2ccccc2S(=O)(=O)N1COc1c(Cl)cccc1Cl` [Example 30BB]: the Ki (Elastase) was above 0.5 µM. Turning to `CCc1cccc2c1C(=O)N(CSc1nnnn1CCN1CCOCC1)S2(=O)=O` [Example 30J], the kinact/KI under setting [1] is 14000 M⁻¹ s⁻¹.

For the compound `Cc1nnc(SCN2C(=O)c3ccccc3S2(=O)=O)s1` [Example 30AB], the kinact/KI under setting [1] was 2800 M⁻¹ s⁻¹.

Turning to `O=C1c2ccccc2S(=O)(=O)N1Cn1nnn(-c2ccccc2)c1=O` [Example 30BH], the Ki (Elastase) was above 10 µM. `O=C1c2ccccc2S(=O)(=O)N1/C=C/CSc1nnnn1-c1ccccc1` [Example 38, trans-2-[3-(1-phenyl-1H-tetrazol-5-ylthio)-1-propenyl]saccharin]: the kinact/KI under setting [1] was 43000 M⁻¹ s⁻¹. For the compound `O=C1c2ccccc2S(=O)(=O)N1CSc1nnc(SCCN2CCCCC2)s1` [Example 33C, 2-(5-[2-(1-piperidinyl)ethylthio]-1,3,4-thiadiazol-2-ylthiomethyl) saccharin], the kinact/KI under setting [1] is 200 M⁻¹ s⁻¹. Consider `CC(C)c1cccc2c1C(=O)N(Cn1nnn(-c3cccnc3)c1=S)S2(=O)=O` [Example 30Z], for which the kinact/KI under setting [1] is 70000 M⁻¹ s⁻¹. Turning to `Cc1ccc(C)c2c1C(=O)N(CCl)S2(=O)=O` [Example 29, 2-chloromethyl-4,7-dimethylsaccharin], the kinact/KI under setting [1] is 1100 M⁻¹ s⁻¹. With `CCc1cccc2c1C(=O)N(CSc1nnnn1CC(=O)N(C)C)S2(=O)=O` [Example 30AV], under setting [1], the kinact/KI is 7600 M⁻¹ s⁻¹.

As to `O=C1c2ccc([N+](=O)[O-])cc2S(=O)(=O)N1CSc1nnnn1-c1ccccc1` [Example 31C], the kinact/KI under setting [1] is 3400 M⁻¹ s⁻¹. On the same count and under the same terms, to `CC(C)c1cccc2c1C(=O)N(CSc1nnnn1CC(=O)N(C)C)S2(=O)=O` [Example 30AW] belongs 30000 M⁻¹ s⁻¹; to `O=C1c2ccccc2S(=O)(=O)N1CF` [Example 27, 2-fluoromethylsaccharin], 7500 M⁻¹ s⁻¹. On the same count and under the same terms, next, `COc1cccc2c1C(=O)N(CCl)S2(=O)=O` [Example 22A, 2-chloromethyl-4-methoxysaccharin]: 12400 M⁻¹ s⁻¹. On to `O=C1c2cc([N+](=O)[O-])ccc2S(=O)(=O)N1CSc1nnnn1-c1ccccc1` [Example 11, 5-nitro-2-(1-phenyl-1H-tetrazol-5-ylthiomethyl)saccharin], for which the kinact/KI was 4600 M⁻¹ s⁻¹. As to `O=C(O)Cn1nnnc1SCN1C(=O)c2ccccc2S1(=O)=O` [Example 34, 2-[1-(2-carboxymethyl)-1H-tetrazol-5-ylthiomethyl]saccharin], under setting [1], the kinact/KI was 400 M⁻¹ s⁻¹. As to `COC(=O)c1cn(-c2ccccc2)c(SCN2C(=O)c3ccccc3S2(=O)=O)n1` [Example 30AR], the kinact/KI under setting [1] was 300 M⁻¹ s⁻¹.

As for `Nc1cccc(-n2nnnc2SCN2C(=O)c3ccccc3S2(=O)=O)c1` [Example 30C, 2-[1-(3-aminophenyl)-1H-tetrazol-5-ylthiomethyl]saccharin], the kinact/KI under setting [1] is 2500 M⁻¹ s⁻¹.

Consider `O=C1c2ccccc2S(=O)(=O)N1CSc1ncccn1` [Example 30F, 2-(2-pyrimidylthiomethyl)saccharin], for which the Ki (Elastase) was above 85 µM. Regarding `O=C1C=Cc2ccc(OCN3C(=O)c4ccccc4S3(=O)=O)c3cccc1c23` [Example 30G], under setting [1], the kinact/KI is 9300 M⁻¹ s⁻¹. With `CN(C)C(=O)Cn1nnnc1SCN1C(=O)c2ccccc2S1(=O)=O` [Example 30AS], under setting [1], the kinact/KI is 1700 M⁻¹ s⁻¹.

Take `O=C1c2ccccc2C(=O)N1CN1C(=O)c2ccccc2S1(=O)=O` [Example 30BF]: the “10^-3 x kon” value under setting [1] was 0.02 M^-1 sec^-1. For the compound `Cc1nnc(SCN2C(=O)c3c(C(C)C)cccc3S2(=O)=O)s1` [Example 30AM], the kinact/KI under setting [1] was 12300 M⁻¹ s⁻¹.

`O=C1c2ccccc2S(=O)(=O)N1CSc1nnnn1C1CCCCC1` [Example 9, 2-(1-cyclohexyl-1H-tetrazol-5-ylthiomethyl)saccharin]: the Ki (Elastase) was 0.032 µM. Besides, under setting [1], the kinact/KI is 2500 M⁻¹ s⁻¹.

With `O=C1c2cccc(Cl)c2S(=O)(=O)N1CCl` [Example 22D], the kinact/KI under setting [1] is 75800 M⁻¹ s⁻¹. On to `CC(C)c1cccc2c1C(=O)N(CCl)S2(=O)=O` [Example 22E], for which the kinact/KI under setting [1] was 4700 M⁻¹ s⁻¹. On the same count and under the same terms, next, `CCOc1ccc(OCCOCCOC)c2c1C(=O)N(CSc1nnnn1-c1ccccc1)S2(=O)=O` [Example 30L]: 6500 M⁻¹ s⁻¹; `O=C1c2ccccc2S(=O)(=O)N1CSc1nnc(S)s1` [Example 30AH, 2-(5-mercapto-1,3,4-thiadiazol-2-ylthiomethyl)saccharin]: 1100 M⁻¹ s⁻¹. As to `CCOc1cccc2c1C(=O)N(CCl)S2(=O)=O` [Example 22H], the kinact/KI under setting [1] is 25000 M⁻¹ s⁻¹. Turning to `COC(=O)c1cccc2c1C(=O)N(CCl)S2(=O)=O` [Example 22G], the kinact/KI under setting [1] was 3000 M⁻¹ s⁻¹. For `O=C1c2ccccc2S(=O)(=O)N1CSc1nnc2ccccn12` [Example 30N], the kinact/KI under setting [1] was 250 M⁻¹ s⁻¹. As to `CC(C)c1cccc2c1C(=O)N(Cn1nnn(-c3ccccc3)c1=S)S2(=O)=O` [Example 30AJ], the kinact/KI under setting [1] was 1800 M⁻¹ s⁻¹. As to `CSc1nn(CN2C(=O)c3ccccc3S2(=O)=O)c(=S)s1` [Example 30AD], under setting [1], the kinact/KI was 7000 M⁻¹ s⁻¹. Take `O=C1c2ccccc2S(=O)(=O)N1CSc1nc(-c2ccccc2)ns1` [Example 30AF]: the “10^-3 x kon” value under setting [1] is recorded as 4.2 M^-1 sec^-1. For the compound `COC(=O)C(Sc1nnnn1-c1ccccc1)N1C(=O)c2ccccc2S1(=O)=O` (stereo not drawn) [Example 17, methyl 2-(1-phenyl-1H-tetrazol-5-ylthio)2-(2-saccharinyl)acetate], the kinact/KI under setting [1] was 2900 M⁻¹ s⁻¹.

Turning to `CCOc1cccc2c1C(=O)N(CSc1nnnn1-c1ccccc1)S2(=O)=O` [Example 30AT], the Ki (Elastase) is 0.003 µM. Under setting [1], the kinact/KI is 45300 M⁻¹ s⁻¹.

For `Cn1cnnc1SCN1C(=O)c2ccccc2S1(=O)=O` [Example 30AC], where the note is “Elastase”, the Ki was 0.246 µM. Moreover, the kinact/KI under setting [1] was 190 M⁻¹ s⁻¹. For `COC(=O)c1cc(C(=O)OC)cc(-n2nnnc2SCN2C(=O)c3ccccc3S2(=O)=O)c1` [Example 30E], the kinact/KI under setting [1] is 7300 M⁻¹ s⁻¹. `O=C1c2ccccc2S(=O)(=O)N1CSc1nnc(SCCN2CCOCC2)s1` [Example 33, 2-(5-[2-(4-morpholinyl)ethylthio]-1,3,4-thiadiazol-2-ylthiomethyl)saccharin]: the kinact/KI under setting [1] is 3600 M⁻¹ s⁻¹. Still for that read-out and setting: next, `COc1ccc2c(c1OC)C(=O)N(CCl)S2(=O)=O` [Example 22F]: 20000 M⁻¹ s⁻¹. As for `O=C1c2cccc(Cl)c2S(=O)(=O)N1CSc1nnnn1-c1ccccc1` [Example 30AG], for the setting “Elastase”, the Ki is above 1 µM. For `O=C1c2ccccc2S(=O)(=O)N1CSc1nnnn1-c1cccnc1` [Example 30Q], the kinact/KI under setting [1] is 1380 M⁻¹ s⁻¹.

`COCCOCCOc1ccc(OC)c2c1S(=O)(=O)N(CSc1nnnn1-c1ccccc1)C2=O` [Example 30M]: the kinact/KI under setting [1] is 1000 M⁻¹ s⁻¹.

Take `Cn1nnc(SCN2C(=O)c3ccccc3S2(=O)=O)n1` [Example 30X]: the kinact/KI under setting [1] is 550 M⁻¹ s⁻¹. For the compound `O=C(O)CCC(=O)Nc1cccc(-n2nnnc2SCN2C(=O)c3ccccc3S2(=O)=O)c1` [Example 35, 2-[1-(3-succinoylaminophenyl)-1H-tetrazol-5-ylthiomethyl]saccharin], under setting [1], the kinact/KI is 3600 M⁻¹ s⁻¹. In the case of `O=C1c2ccccc2S(=O)(=O)N1CSc1nnnn1CCO` [Example 30AQ, 2-[1-(2-hydroxyethyl)-1H-tetrazol-5-ylthiomethyl]saccharin], the kinact/KI under setting [1] is 900 M⁻¹ s⁻¹. Same read-out and setting: to `O=C1c2c(Cl)cccc2S(=O)(=O)N1CSc1nnnn1-c1ccccc1` [Example 4, 4-chloro-2-(1-phenyl-1H-tetrazol-5-ylthiomethyl) saccharin] belongs 20000 M⁻¹ s⁻¹; to `O=C1c2ccccc2S(=O)(=O)N1CSc1nnnn1CCN1CCOCC1` [Example 30BG], 1700 M⁻¹ s⁻¹. For the compound `O=C1c2c(-c3ccccc3)cccc2S(=O)(=O)N1CSc1nnnn1-c1ccccc1` [Example 30BC], under “Elastase”, the Ki is 0.08 µM. Also, the kinact/KI under setting [1] is 5800 M⁻¹ s⁻¹. With `O=C1c2ccccc2S(=O)(=O)N1COc1ccc([N+](=O)[O-])cc1` [Example 15, 2-(4-nitrophenoxymethyl)saccharin], under setting [1], the kinact/KI was 3200 M⁻¹ s⁻¹. With `CC(C)c1cccc2c1C(=O)N(CSc1nnnn1CCN1CCOCC1)S2(=O)=O` [Example 30BI], under setting [1], the kinact/KI is 39000 M⁻¹ s⁻¹.
